Measured values from ChEMBL document CHEMBL3991601, “The target landscape of clinical kinase drugs” (Science, 2017).
The source made the active and inactive calls. Rule as the data show it, for most assays here: actives have a measured Kd and inactives only a lower limit.

Legend:
[1] = biological target: T1, Acyl-CoA dehydrogenase family member 10 (Homo sapiens, UniProt Q6JQN1)
T1 sequence (Q6JQN1 whole entry): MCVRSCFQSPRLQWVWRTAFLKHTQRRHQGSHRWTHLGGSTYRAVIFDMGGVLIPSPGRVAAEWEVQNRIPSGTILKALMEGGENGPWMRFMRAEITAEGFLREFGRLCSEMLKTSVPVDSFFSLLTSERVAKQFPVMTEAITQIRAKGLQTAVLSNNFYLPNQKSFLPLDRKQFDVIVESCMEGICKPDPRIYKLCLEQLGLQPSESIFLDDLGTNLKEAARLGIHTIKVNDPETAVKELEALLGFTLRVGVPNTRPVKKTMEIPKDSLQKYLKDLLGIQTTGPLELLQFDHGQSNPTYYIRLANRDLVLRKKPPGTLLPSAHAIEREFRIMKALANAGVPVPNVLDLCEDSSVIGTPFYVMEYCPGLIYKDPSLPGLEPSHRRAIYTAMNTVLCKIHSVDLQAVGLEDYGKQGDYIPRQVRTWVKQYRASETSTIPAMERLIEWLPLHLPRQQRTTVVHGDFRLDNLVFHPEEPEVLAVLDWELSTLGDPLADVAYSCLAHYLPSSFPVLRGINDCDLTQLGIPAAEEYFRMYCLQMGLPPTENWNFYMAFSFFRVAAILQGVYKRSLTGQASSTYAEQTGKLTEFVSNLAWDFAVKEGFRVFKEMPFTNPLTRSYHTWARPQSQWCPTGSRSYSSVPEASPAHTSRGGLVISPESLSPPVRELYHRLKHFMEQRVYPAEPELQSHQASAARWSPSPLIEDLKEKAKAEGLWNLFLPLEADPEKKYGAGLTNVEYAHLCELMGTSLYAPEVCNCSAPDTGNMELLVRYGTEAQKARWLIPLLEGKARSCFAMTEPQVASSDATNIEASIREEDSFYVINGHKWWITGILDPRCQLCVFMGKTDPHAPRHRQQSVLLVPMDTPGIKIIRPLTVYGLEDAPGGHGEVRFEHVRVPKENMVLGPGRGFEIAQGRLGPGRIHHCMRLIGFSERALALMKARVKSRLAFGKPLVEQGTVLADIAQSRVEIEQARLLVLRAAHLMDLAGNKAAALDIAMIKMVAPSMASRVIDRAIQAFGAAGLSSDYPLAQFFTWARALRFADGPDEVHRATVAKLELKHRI

[2] = biological target: T2, Serine/threonine-protein kinase TAO2 (Homo sapiens, UniProt Q9UL54)
T2 sequence (Q9UL54 whole entry): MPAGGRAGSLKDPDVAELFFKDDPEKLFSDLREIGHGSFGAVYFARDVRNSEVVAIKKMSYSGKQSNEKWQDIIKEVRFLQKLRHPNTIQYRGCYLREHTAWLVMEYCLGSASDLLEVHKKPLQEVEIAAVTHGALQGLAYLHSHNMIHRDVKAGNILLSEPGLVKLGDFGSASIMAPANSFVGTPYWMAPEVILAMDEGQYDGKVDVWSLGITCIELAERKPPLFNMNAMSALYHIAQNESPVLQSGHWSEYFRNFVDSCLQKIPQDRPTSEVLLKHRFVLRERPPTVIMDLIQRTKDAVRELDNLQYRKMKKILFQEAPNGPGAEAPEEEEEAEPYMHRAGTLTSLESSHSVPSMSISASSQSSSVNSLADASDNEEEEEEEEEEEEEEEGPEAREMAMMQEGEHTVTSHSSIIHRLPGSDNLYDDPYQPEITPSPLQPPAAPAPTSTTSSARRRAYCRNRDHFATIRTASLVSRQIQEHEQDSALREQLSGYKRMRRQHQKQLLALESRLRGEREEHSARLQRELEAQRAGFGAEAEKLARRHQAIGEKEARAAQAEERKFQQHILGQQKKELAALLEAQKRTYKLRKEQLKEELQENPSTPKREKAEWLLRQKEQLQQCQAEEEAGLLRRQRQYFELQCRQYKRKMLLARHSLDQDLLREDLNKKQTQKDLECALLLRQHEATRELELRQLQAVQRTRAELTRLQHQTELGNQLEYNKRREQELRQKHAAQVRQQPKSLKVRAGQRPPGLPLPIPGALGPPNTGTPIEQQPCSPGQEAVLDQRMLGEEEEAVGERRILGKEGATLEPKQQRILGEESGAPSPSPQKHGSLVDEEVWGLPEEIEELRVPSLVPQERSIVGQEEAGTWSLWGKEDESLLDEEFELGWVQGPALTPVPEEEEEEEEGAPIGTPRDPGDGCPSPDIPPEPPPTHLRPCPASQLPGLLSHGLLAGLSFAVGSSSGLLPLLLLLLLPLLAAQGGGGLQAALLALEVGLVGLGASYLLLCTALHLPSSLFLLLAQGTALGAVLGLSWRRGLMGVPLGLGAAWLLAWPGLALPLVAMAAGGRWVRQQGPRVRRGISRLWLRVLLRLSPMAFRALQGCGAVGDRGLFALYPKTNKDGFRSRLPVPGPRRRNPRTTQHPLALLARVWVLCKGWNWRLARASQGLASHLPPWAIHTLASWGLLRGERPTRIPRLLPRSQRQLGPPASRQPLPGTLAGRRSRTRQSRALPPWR

[3] = biological target: BMP-2-inducible protein kinase (Homo sapiens, UniProt Q9NSY1)
[4] = biological target: Mitogen-activated protein kinase kinase kinase 20 (Homo sapiens, UniProt Q9NYL2)
[5] = biological target: Ribosomal protein S6 kinase alpha-6 (Homo sapiens, UniProt Q9UK32)
[6] = biological target: Mitogen-activated protein kinase 10 (Homo sapiens, UniProt P53779)
[7] = biological target: T3, Interleukin-1 receptor-associated kinase 4 (Homo sapiens, UniProt Q9NWZ3)
T3 sequence (Q9NWZ3 whole entry): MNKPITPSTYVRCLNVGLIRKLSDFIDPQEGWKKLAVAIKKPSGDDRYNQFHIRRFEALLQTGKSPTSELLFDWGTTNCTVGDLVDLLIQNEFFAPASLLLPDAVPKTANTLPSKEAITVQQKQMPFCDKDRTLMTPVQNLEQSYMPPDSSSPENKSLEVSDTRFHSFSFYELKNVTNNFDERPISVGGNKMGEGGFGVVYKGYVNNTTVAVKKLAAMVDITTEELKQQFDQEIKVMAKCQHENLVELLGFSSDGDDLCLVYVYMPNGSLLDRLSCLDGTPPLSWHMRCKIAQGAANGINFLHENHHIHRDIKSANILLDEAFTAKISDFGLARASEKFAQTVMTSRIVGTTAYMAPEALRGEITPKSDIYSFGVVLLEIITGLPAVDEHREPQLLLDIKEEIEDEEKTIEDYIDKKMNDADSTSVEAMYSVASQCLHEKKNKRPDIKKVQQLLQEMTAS
Also: in the data inactive means no Kd found up to 30 µM.

Chain of Ribosomal protein S6 kinase alpha-6 (Q9UK32 whole entry): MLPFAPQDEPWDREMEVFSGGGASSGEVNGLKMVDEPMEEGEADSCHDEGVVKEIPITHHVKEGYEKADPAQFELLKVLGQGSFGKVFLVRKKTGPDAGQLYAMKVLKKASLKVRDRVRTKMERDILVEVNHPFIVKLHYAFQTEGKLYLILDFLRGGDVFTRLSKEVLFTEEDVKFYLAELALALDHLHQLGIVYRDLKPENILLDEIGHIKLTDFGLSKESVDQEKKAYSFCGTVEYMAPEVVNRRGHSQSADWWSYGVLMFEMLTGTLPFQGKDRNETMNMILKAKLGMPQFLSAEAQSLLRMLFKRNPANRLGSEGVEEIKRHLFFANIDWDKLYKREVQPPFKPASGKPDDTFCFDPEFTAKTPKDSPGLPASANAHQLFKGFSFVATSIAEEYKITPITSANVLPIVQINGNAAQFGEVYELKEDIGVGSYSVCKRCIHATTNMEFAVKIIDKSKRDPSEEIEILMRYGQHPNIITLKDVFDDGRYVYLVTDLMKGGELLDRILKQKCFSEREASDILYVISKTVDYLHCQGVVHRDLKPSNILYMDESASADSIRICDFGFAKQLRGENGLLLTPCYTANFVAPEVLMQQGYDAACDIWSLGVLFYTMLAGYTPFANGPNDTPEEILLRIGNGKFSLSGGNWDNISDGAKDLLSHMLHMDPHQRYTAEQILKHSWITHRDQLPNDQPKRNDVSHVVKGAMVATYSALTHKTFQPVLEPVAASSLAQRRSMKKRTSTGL
Chain of Mitogen-activated protein kinase kinase kinase 20 (Q9NYL2 whole entry): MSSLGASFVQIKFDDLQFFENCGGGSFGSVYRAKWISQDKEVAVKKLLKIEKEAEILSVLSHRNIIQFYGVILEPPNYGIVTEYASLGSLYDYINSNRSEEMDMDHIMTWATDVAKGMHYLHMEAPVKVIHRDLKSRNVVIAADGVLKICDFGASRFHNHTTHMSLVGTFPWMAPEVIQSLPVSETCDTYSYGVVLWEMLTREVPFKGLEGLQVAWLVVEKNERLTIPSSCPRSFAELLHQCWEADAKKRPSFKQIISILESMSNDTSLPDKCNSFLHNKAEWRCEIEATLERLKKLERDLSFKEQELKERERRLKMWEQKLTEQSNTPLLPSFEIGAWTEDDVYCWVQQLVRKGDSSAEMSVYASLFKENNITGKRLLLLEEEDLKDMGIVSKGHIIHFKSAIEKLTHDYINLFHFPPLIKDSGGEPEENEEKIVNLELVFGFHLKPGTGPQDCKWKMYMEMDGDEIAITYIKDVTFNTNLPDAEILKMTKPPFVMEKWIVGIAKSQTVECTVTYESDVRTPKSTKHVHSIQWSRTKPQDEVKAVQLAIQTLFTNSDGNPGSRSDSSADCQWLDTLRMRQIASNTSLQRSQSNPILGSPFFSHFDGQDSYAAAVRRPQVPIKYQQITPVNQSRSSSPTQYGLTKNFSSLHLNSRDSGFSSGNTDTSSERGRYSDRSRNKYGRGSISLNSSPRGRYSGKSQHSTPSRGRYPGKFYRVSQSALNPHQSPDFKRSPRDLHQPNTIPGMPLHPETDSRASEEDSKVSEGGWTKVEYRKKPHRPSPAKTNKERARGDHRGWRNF
Chain of Mitogen-activated protein kinase 10 (P53779 whole entry): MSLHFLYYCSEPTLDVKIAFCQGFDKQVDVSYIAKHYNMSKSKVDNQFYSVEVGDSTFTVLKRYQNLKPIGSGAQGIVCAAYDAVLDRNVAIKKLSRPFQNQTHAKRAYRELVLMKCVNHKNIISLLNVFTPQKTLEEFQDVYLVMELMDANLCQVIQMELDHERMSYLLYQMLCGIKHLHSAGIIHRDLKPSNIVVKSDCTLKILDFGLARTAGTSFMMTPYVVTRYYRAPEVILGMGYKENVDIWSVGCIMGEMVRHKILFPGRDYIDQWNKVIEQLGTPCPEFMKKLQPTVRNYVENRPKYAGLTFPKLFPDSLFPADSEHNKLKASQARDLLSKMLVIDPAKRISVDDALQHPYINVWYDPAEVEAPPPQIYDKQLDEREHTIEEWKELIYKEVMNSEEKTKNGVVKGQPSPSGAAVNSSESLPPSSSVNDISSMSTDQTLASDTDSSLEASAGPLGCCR
Chain of BMP-2-inducible protein kinase (Q9NSY1 whole entry): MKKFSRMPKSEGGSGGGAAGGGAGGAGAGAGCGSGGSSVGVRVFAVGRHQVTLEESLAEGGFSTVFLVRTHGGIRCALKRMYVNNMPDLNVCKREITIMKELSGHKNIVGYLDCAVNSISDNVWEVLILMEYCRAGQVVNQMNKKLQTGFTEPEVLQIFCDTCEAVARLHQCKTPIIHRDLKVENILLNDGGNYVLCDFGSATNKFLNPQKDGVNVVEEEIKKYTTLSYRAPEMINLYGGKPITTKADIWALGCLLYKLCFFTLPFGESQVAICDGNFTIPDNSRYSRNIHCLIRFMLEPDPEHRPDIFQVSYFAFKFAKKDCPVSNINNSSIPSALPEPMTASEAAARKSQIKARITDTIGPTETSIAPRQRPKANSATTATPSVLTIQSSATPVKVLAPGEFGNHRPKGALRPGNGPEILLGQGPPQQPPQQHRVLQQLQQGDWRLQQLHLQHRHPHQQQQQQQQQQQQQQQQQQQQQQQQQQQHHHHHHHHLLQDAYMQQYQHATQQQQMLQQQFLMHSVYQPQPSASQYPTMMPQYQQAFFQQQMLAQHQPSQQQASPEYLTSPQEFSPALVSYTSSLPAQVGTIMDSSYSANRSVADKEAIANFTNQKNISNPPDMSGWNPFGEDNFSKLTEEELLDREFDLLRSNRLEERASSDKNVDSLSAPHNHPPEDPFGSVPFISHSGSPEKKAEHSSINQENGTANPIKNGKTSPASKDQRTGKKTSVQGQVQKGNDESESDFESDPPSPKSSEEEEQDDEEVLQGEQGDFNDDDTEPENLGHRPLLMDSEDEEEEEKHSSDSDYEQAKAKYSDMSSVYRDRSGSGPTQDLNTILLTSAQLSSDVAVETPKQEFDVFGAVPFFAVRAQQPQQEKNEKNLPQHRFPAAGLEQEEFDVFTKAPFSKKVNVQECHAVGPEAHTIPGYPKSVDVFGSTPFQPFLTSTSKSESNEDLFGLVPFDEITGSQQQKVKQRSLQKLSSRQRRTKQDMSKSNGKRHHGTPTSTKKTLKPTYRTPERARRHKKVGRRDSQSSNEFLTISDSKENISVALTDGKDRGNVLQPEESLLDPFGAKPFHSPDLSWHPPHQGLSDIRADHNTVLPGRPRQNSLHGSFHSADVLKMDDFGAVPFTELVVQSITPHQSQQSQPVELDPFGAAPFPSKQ

Row | SMILES | Kd [1] | Kd [2] | Kd [3] | Kd [4] | Kd [5] | Kd [6] | Kd [7]
1 | COC(=O)[C@@]1(O)C[C@H]2O[C@]1(C)n1c3ccccc3c3c4c(c5c6ccccc6n2c5c31)C(=O)NC4 [K-252A] | > 30 µM (inactive) | > 30 µM (inactive) | 0.09 µM (active) | > 30 µM (inactive) | 2.18 µM (active) | > 30 µM (inactive) | 0.009 µM (active)
2 | O=C(O)[C@]1(Cc2cccc(Nc3nccs3)n2)CC[C@@H](Oc2cccc(Cl)c2F)CC1 [MK-5108] | 2.47 µM (active) | > 30 µM (inactive) | > 30 µM (inactive) | > 30 µM (inactive) | > 30 µM (inactive) | 3.08 µM (active) | > 30 µM (inactive)
3 | Cc1ccc(-n2nc(C(C)(C)C)cc2NC(=O)NCc2cc(F)ccc2Oc2ccc3c(cnn3CCO)c2)cc1 [PEXMETINIB] | > 30 µM (inactive) | > 30 µM (inactive) | > 30 µM (inactive) | 1.25 µM (active) | > 30 µM (inactive) | 0.195 µM | > 30 µM (inactive)
4 | C=CC(=O)N1CCC(Oc2cc3c(Nc4ccc(Cl)c(Cl)c4F)ncnc3cc2OC)CC1 [POZIOTINIB] | > 30 µM (inactive) | > 30 µM (inactive) | > 30 µM (inactive) | > 30 µM (inactive) | > 30 µM (inactive) | > 30 µM (inactive) | > 30 µM (inactive)
5 | CN(C)C(=O)c1cc2cnc(Nc3ccc(N4CCNCC4)cn3)nc2n1C1CCCC1 [RIBOCICLIB] | > 30 µM (inactive) | > 30 µM (inactive) | > 30 µM (inactive) | > 30 µM (inactive) | > 30 µM (inactive) | > 30 µM (inactive) | > 30 µM (inactive)
6 | CN1CCC(CNc2ccc3ncc(-c4cccc(OC(F)(F)F)c4)n3n2)CC1 [SGI-1776] | > 30 µM (inactive) | > 30 µM (inactive) | 8.53 µM (active) | > 30 µM (inactive) | 23.8 µM (active) | > 30 µM (inactive) | > 30 µM (inactive)
7 | C[C@@H]1CN(Cc2ccc(F)cc2)[C@@H](C)CN1C(=O)c1cc2c(C(=O)C(=O)N(C)C)cn(C)c2cc1Cl [TALMAPIMOD] | > 30 µM (inactive) | > 30 µM (inactive) | > 30 µM (inactive) | > 30 µM (inactive) | > 30 µM (inactive) | > 30 µM (inactive) | > 30 µM (inactive)
8 | CN1CCC(COc2cnc(-c3cccc(Cn4nc(-c5cccc(C#N)c5)ccc4=O)c3)nc2)CC1 [TEPOTINIB] | > 30 µM (inactive) | > 30 µM (inactive) | > 30 µM (inactive) | > 30 µM (inactive) | > 30 µM (inactive) | > 30 µM (inactive) | > 30 µM (inactive)
9 | O=c1sn(-c2cccc3ccccc23)c(=O)n1Cc1ccccc1 [TIDEGLUSIB] | > 30 µM (inactive) | > 30 µM (inactive) | > 30 µM (inactive) | > 30 µM (inactive) | > 30 µM (inactive) | > 30 µM (inactive) | > 30 µM (inactive)

The remaining lines, values ahead:

Row | Kd [1] | Kd [2] | Kd [3] | Kd [4] | Kd [5] | Kd [6] | Kd [7] | SMILES
10 | > 30 µM (inactive) | > 30 µM (inactive) | > 30 µM (inactive) | > 30 µM (inactive) | > 30 µM (inactive) | > 30 µM (inactive) | > 30 µM (inactive) | Cc1c(F)cc(C(=O)NC2CC2)cc1-c1ccc(C(=O)NCC(C)(C)C)cn1 [LOSMAPIMOD]
11 | > 30 µM (inactive) | > 30 µM (inactive) | > 30 µM (inactive) | > 30 µM (inactive) | > 30 µM (inactive) | > 30 µM (inactive) | > 30 µM (inactive) | Cn1cc(-c2ccc(F)c(C(F)(F)F)c2)nc1C1CCN(c2ncnc3[nH]ncc23)CC1 [LY-2584702]
12 | > 30 µM (inactive) | > 30 µM (inactive) | > 30 µM (inactive) | > 30 µM (inactive) | > 30 µM (inactive) | > 30 µM (inactive) | > 30 µM (inactive) | OCCn1cc(-c2cnc3nnn(Cc4ccc5ncccc5c4)c3n2)cn1 [PF-04217903]
13 | > 30 µM (inactive) | > 30 µM (inactive) | > 30 µM (inactive) | 0.274 µM (active) | > 30 µM (inactive) | > 30 µM (inactive) | > 30 µM (inactive) | CNC(=O)c1cc(Oc2ccc(NC(=O)Nc3ccc(Cl)c(C(F)(F)F)c3)c(F)c2)ccn1 [REGORAFENIB]
14 | > 30 µM (inactive) | > 30 µM (inactive) | > 30 µM (inactive) | > 30 µM (inactive) | > 30 µM (inactive) | > 30 µM (inactive) | > 30 µM (inactive) | COc1cc(OC)c(/C=C/S(=O)(=O)Cc2ccc(OC)c(NCC(=O)O)c2)c(OC)c1 [RIGOSERTIB]
15 | > 30 µM (inactive) | > 30 µM (inactive) | > 30 µM (inactive) | > 30 µM (inactive) | > 30 µM (inactive) | > 30 µM (inactive) | > 30 µM (inactive) | CNC(=O)CN1CCC(Oc2cc3c(Nc4cccc(Cl)c4F)ncnc3cc2OC)CC1 [SAPITINIB]
16 | > 30 µM (inactive) | > 30 µM (inactive) | > 30 µM (inactive) | > 30 µM (inactive) | > 30 µM (inactive) | > 30 µM (inactive) | > 30 µM (inactive) | C[C@@H](c1ccc2nccn2c1)n1nnc2ncc(-c3cnn(C)c3)nc21 [SAVOLITINIB]
17 | > 30 µM (inactive) | > 30 µM (inactive) | > 30 µM (inactive) | > 30 µM (inactive) | > 30 µM (inactive) | > 30 µM (inactive) | > 30 µM (inactive) | CC(=O)Nc1cccc(-n2c(=O)n(C3CC3)c(=O)c3c(Nc4ccc(I)cc4F)n(C)c(=O)c(C)c32)c1 [TRAMETINIB]
